Assay results: article PMC2673918 (Journal of natural products, 2009)

Legend:
chymotrypsin = chymotrypsin inhibition; type: biochemical; conditions: at concentrations up to 100 µg/mL
trypsin = trypsin inhibition; type: biochemical; conditions: at concentrations up to 100 µg/mL

Substance	chymotrypsin inhibition (qualitative) (chymotrypsin)	trypsin inhibition (qualitative) (trypsin)
Anabaenopeptin 915 [Compound 4]	did not observe trypsin/chymotrypsin inhibition	did not observe trypsin/chymotrypsin inhibition
Anabaenopeptin 908 [Compound 3]	did not observe trypsin/chymotrypsin inhibition	did not observe trypsin/chymotrypsin inhibition
